Values of other authors as cited in patent publication US20200113899A1, “STATIN COMPOSITIONS AND METHODS FOR USE IN TREATING SYNUCLEINOPATHIES” (CHASE THERAPEUTICS CORPORATION, priority 2017, published 2020).
Values belong to the compound of their own block, whether it stands above or below them.

How the values were obtained:
alpha-synuclein [1] = conditions: transgenic mouse models
[2] = pramipexole 5 mg/day
[3] = 535 PD patients
alpha-synuclein [4] = conditions: Parkinson patients, therapeutic doses, compared with pre-treatment values; magnitude of the effect small

SMILES: CC[C@H](C)C(=O)O[C@H]1C[C@@H](C)C=C2C=C[C@H](C)[C@H](CC[C@@H]3C[C@@H](O)CC(=O)O3)[C@H]21 [lovastatin, (1S,3R,7S,8S,8aR)-8-{2-[(2R,4R)-4-Hydroxy-6-oxooxan-2-yl]ethyl}-3,7-dimethyl-1,2,3,7,8,8a-hexahydronaphthalen-1-yl (2S)-2-methylbutanoate]
- alpha-synuclein accumulation and oxidation (alpha-synuclein [1]): ameliorated

- patients with nausea [2]: 76%
- patients with vomiting [2]: 39%
SMILES: CCCN[C@H]1CCc2nc(N)sc2C1 [pramipexole, (S)-6-propylamino-4,5,6,7-tetrahydro-1,3-benzothiazole-2-amine]
- patients not able to complete the study ([2]; presumably because of intolerable GI adverse events): 36%
- neuroprotective (disease modifying) activity [3]: failed to evidence neuroprotective (i.e., disease modifying) activity
- relative expression of alpha-synuclein (alpha-synuclein [4]): significantly lowered

SMILES: CC(C)c1nc(N(C)S(C)(=O)=O)nc(-c2ccc(F)cc2)c1/C=C/[C@@H](O)C[C@@H](O)CC(=O)O [rosuvastatin, (3R,5S,6E)-7-[4-(4-Fluorophenyl)-2-(N-methylmethanesulfonamido)-6-(propan-2-yl)pyrimidin-5-yl]-3,5-dihydroxyhept-6-enoic acid]
- effect against rotenone-induced neurotoxicity (SH-SY5Y cells): neuroprotective effect
- α-synuclein expression (SH-SY5Y cells): modulation
